Consider five compounds from patent publication US8785494B2, “Calcium sensing receptor modulating compounds and pharmaceutical use thereof” (LEO-Pharma A/S, priority 2009, dated 2014).

The nature of series [1]: Clearance in rat hepatocytes. Type of series: in vitro ADME. As to conditions: test compound 0.5 μM, 1×10^6 cells/mL, scaled to rat body weight. The procedure:
Test compound concentration is 0.5 μM and cell concentration is 1×10^6 cells/mL in the incubation. The described method is manual and is based on a 24-well format.
The liver is collected from a male Spraque-Dawley rat. One liver lobe is cut off and flushed with various buffers to loosen the cells. The cell suspension is washed and centrifuged, and the cell density is adjusted to 1.2×10^6 cells/mL with Krebs-Henseleit buffer, pH 7.4, containing 0.2% bovine serum albumin (BSA). Only cell suspensions with viability above 80% are used.
A volume of 315 μL cell suspension per well is added to 24-well plates and preincubated at 37° C. for 20 min. Test compound (0.5 μM) is added, and the mixture is incubated for 20 minutes. Incubations are run in duplicate. Samples are withdrawn at predetermined stop times and mixed with methanol containing internal standard (IS) to terminate all enzyme activity and precipitate proteins.
The percentage of organic solvent in the incubations is less than 1%. Careful inspections of reagents are performed prior to the start of any experiment to ensure all reagents are in solution.
The 24-well plates are centrifuged. Test compound depletion, using a compound specific LC/MS/MS method, is determined. The logarithm of the peak area ratios of test compound to internal standard (IS) versus incubation time is plotted in a graph
The rate constant (k) (min^−1) of test compound depletion is calculated from the linear part of the curve and the half-time (t1/2) in minutes can be calculated from the rate constant (Eq. 1). t1/2=(ln 2)/k (Eq. 1)
Intrinsic clearance (Clint) (mL/min/10^6 cells) is calculated from: Clint=k/c (Eq. 2) where c is the cell concentration in 10^6 cells/mL.
Conversion to apparent clearance (Clapp) (mL/min/kg) is done by Eq. 3: Clapp=Clint×a×b/d (Eq. 3) where a, b and d are the scaling factors for normalizing Clint to rat body weight.
The following rat scaling factors are used: • a: 120 (cells/liver weight (10^6 cells/g)) • b: 10 (liver weight (g)) • d: 0.25 (body weight (kg))
Apparent clearance is a measure of compound elimination from the liver. Apparent clearance below approximately 25 mL/min/kg rat body weight (corresponding to extraction ratio of approx. 30%) is considered as low clearance (high metabolic stability). Apparent clearance above approximately 165 mL/min/kg rat body weight (corresponding to extraction ratio of approx. 75%) is considered as high clearance (low metabolic stability).

In series [2] the target is T1, human CaSR (Homo sapiens, UniProt P41180).
T1 construct: The ORF coding for the human CaSR (genebank: NM_000388) was acquired from Invitrogen Corp, USA
T1 sequence (P41180 20-1078): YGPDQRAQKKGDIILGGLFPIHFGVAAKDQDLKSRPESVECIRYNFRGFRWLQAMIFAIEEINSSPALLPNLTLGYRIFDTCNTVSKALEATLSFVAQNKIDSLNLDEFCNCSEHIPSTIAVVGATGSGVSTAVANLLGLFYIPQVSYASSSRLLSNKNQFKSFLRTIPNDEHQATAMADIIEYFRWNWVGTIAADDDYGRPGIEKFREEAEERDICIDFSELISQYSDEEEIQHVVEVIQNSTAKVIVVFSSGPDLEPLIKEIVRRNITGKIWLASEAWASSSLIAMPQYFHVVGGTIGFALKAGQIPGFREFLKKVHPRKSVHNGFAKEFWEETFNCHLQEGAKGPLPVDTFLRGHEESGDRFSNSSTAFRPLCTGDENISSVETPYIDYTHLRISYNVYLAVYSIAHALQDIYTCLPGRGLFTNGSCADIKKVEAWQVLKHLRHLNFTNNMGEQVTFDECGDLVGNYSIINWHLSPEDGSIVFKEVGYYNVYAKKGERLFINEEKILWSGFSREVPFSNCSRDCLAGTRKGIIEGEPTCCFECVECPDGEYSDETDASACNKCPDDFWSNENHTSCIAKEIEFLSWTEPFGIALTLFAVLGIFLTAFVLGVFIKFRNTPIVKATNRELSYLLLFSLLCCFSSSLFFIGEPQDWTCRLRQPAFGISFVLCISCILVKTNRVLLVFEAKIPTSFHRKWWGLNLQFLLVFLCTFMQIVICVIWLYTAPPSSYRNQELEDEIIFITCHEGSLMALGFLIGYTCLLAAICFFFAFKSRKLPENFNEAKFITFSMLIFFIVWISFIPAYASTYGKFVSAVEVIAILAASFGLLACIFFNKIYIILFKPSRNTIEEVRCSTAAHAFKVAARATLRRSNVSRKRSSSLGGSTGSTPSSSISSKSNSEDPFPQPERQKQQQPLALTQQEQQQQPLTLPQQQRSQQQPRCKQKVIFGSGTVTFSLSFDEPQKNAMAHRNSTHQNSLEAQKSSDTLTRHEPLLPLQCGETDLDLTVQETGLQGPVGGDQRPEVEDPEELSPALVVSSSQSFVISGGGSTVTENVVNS
Nature of the series: Functional whole cell assay (IP1 accumulation, IP-One htrf) in CHO-K1 cells stably expressing human CaSR. It is filed as cell-based. The settings on record: 2 mM Ca2+, 1 hour at 37° C., IP1 readout, read-out: Functional whole cell assay (modulation of human CaSR). The text has this:
The assay investigates a compound's functional ability to act as a biological positive modulator on the human CaSR. Activation of the receptor expressed on CHO-K1 cells is detected through the G alpha q pathway, the activation of phospholipase C and the accumulation of intracellular inositol phosphate (IP) as described earlier [Sandrine Ferry, Bruno Chatel, Robert H. Dodd, Christine Lair, Danielle Gully, Jean-Pierre Maffrand, and Martial Ruat. Effects of Divalent Cations and of a Calcimimetic on Adrenocorticotropic Hormone Release in Pituitary Tumor Cells. BIOCHEMICAL AND BIOPHYSICAL RESEARCH COMMUNICATIONS 238, 866-873 (1997)]. The human CaSR is stably expressed on a CHO-K1 cell clone, stimulated with a basal level of calcium and challenged with the tested compound. The level of IP1 is determined using the IP-One htrf kit (Cisbio, France). CHO-K1 cells not transfected with the CaSR fail to elicit an IP1 response upon calcium and/or compound stimulation.
The ORF coding for the human CaSR (genebank: NM_000388) was acquired from Invitrogen Corp, USA and subsequently cloned into the mammalian expression vector pCDA3.1.
CHO-K1 cells were transfected using Lipofectamine according to manufacturer's protocol (400.000 cells/well were seeded in a 6-well plate and transfected after 24 hours using 2 μg DNA and 5 μl lipofectamine). After another 24 hours the cells were detached, seeded and subjected to 1 mg/ml of G-418. Following 7 days growth single clones were picked, the CaSR expression evaluated using the 5C10 antibody against CaSR, the clones with the highest expression were selected and tested for functional response. The preferred clone was continuously cultured according to standard procedures described in ATCC (American Type Culture Collection) protocols for CHO-K1 with the addition of 500 μg/ml G-418.
On the assay day cells were harvested and resuspended to 13*10^6 cells/ml in stimulation buffer (containing: Hepes 10 mM, MgCl2 0.5 mM, KCl 4.2 mM, NaCl 146 mM, glucose 5.5 mM, LiCl 50 mM at pH 7.4). Five μl cell solution were pipetted into a well (white 384-well plate, Perkin Elmer Optiplate) followed by 5 μl compound diluted in a Ca^2+-containing (to the final concentration of 2 mM) buffer. After compound stimulation for 1 hour at 37° C. 10 μl of IP-One assay reagents were added and incubated for another 1 hour at room temperature. Finally the plate was read using a Perkin Elmer EnVision, according to protocol supplied by the IP-One assay kit manufacturer. The FRET ratio was calculated by dividing the 665 nm emission signal with that of the 615 nm.

Structures are written as SMILES. A value given as a limit tells only on which side of the number the result lay.

For `COc1cc([C@@H](C)NC2CC[C@@H](c3cc(OCC(=O)O)cc(C(F)(F)F)c3)C2)ccc1F` (single isomer, unassigned) [Compound 1022], the “Clearance (Clapp) in rat hepatocytes” value in series [1] is “A (A: <30 mL/min/kg)”. The EC50 in series [2] was < 0.5 µM.
For `C[C@@H](NC1CC[C@@H](c2cc(OCC(=O)O)cc(C(F)(F)F)c2)C1)c1cccc2ccccc12` (single isomer, unassigned) [Compound 1023], in that order: “B (B: 30-55 mL/min/kg)” and < 0.5 µM.
The like results for `COc1cc([C@@H](C)NC2CC[C@H](c3ccc(OCC(=O)O)c(C(F)(F)F)c3)C2)ccc1F` (mixture of isomers) [Compound 1021, 2-[4-[(1S)-3-[[(1R)-1-(4-fluoro-3-methoxy-phenyl)ethyl]amino]cyclopentyl]-2-(trifluoromethyl)phenoxy]acetic acid] were, in that order, “A (A: <30 mL/min/kg)” and < 0.5 µM.
The like results for `COc1cc([C@@H](C)NC2CC[C@H](c3ccc(CCC(=O)O)c(C(F)(F)F)c3)C2)ccc1F` (single isomer, unassigned) [Compound 1012] were, in that order, “A (A: <30 mL/min/kg)” and < 0.5 µM.
Consider `C[C@@H](NC1CCC(c2ccc(CCC(=O)O)c(C(F)(F)F)c2)C1)c1cccc2ccccc12` (single isomer, unassigned) [Compound 1007], for which the “Clearance (Clapp) in rat hepatocytes” value in series [1] is “B (B: 30-55 mL/min/kg)”. In addition, the EC50 in series [2] is < 0.5 µM.
